Reference: PubChem BioAssay (NCI)
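1) Cells in 96-well plates. 2) Compound, 48 h, 5 concentrations. 3) Linear interpolation between surrounding doses. 4) Unreached endpoint = highest concentration. TGI: total growth inhibition.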

What was measured:
Experiment in all cases: NCI tumour cell line growth inhibition, 48 h
U251 CNS = system: U251 CNS
HT29 colon = system: HT29 colon
UACC-62 melanoma = system: UACC-62 melanoma
RXF 393 renal = system: RXF 393 renal
SF-268 CNS = system: SF-268 CNS
HOP-62 NSCLC = system: HOP-62 NSCLC
A549 NSCLC = system: A549 NSCLC
LOX IMVI melanoma = system: LOX IMVI melanoma
CAKI-1 renal = system: CAKI-1 renal
T-47D breast = system: T-47D breast
HCT-116 colon = system: HCT-116 colon
HL-60(TB) leukemia = system: HL-60(TB) leukemia
A498 renal = system: A498 renal
NCI-H23 lung = system: NCI-H23 lung
CCRF-CEM leukemia = system: CCRF-CEM leukemia
HOP-92 NSCLC = system: HOP-92 NSCLC
K-562 leukemia = system: K-562 leukemia
MCF7 breast = system: MCF7 breast
SK-MEL-28 melanoma = system: SK-MEL-28 melanoma
SF-295 CNS = system: SF-295 CNS
OVCAR-4 ovarian = system: OVCAR-4 ovarian
SK-OV-3 ovarian = system: SK-OV-3 ovarian
OVCAR-8 ovarian = system: OVCAR-8 ovarian
NCI-H226 lung = system: NCI-H226 lung
COLO 205 colon = system: COLO 205 colon
HCT-15 colon = system: HCT-15 colon
HCC-2998 colon = system: HCC-2998 colon
NCI-H522 lung = system: NCI-H522 lung
EKVX NSCLC = system: EKVX NSCLC
IGROV1 ovarian = system: IGROV1 ovarian
KM12 colon = system: KM12 colon
OVCAR-3 ovarian = system: OVCAR-3 ovarian
SNB-19 CNS = system: SNB-19 CNS
PC-3 prostate = system: PC-3 prostate
MDA-N = system: MDA-N
MDA-MB-231 breast = system: MDA-MB-231 breast
MALME-3M melanoma = system: MALME-3M melanoma
UO-31 renal = system: UO-31 renal
ACHN renal = system: ACHN renal
MDA-MB-435 = system: MDA-MB-435
NCI-H460 lung = system: NCI-H460 lung
NCI/ADR-RES ovarian = system: NCI/ADR-RES ovarian
786-0 renal = system: 786-0 renal
UACC-257 melanoma = system: UACC-257 melanoma
SW-620 colon = system: SW-620 colon
TK-10 renal = system: TK-10 renal
OVCAR-5 ovarian = system: OVCAR-5 ovarian
SN12C renal = system: SN12C renal
MOLT-4 leukemia = system: MOLT-4 leukemia
DU-145 prostate = system: DU-145 prostate
SK-MEL-2 melanoma = system: SK-MEL-2 melanoma
SNB-75 CNS = system: SNB-75 CNS
SF-539 CNS = system: SF-539 CNS
M14 melanoma = system: M14 melanoma
SR leukemia = system: SR leukemia
RPMI-8226 leukemia = system: RPMI-8226 leukemia
SK-MEL-5 melanoma = system: SK-MEL-5 melanoma

COC(=O)CNC(=O)CCSc1nnc(COc2ccc(Cl)cc2)n1-c1ccccc1
TGI (U251 CNS): > 100 µM
TGI (HT29 colon): > 100 µM
TGI (UACC-62 melanoma): 44 µM
TGI (RXF 393 renal): 67.5 µM
TGI (SF-268 CNS): 48.5 µM
TGI (HOP-62 NSCLC): > 100 µM
TGI (A549 NSCLC): > 100 µM
TGI (LOX IMVI melanoma): > 100 µM
TGI (CAKI-1 renal): 26.7 µM
TGI (T-47D breast): > 100 µM
TGI (HCT-116 colon): > 100 µM
TGI (HL-60(TB) leukemia): > 100 µM
TGI (A498 renal): > 100 µM
TGI (NCI-H23 lung): > 100 µM
TGI (CCRF-CEM leukemia): > 100 µM
TGI (HOP-92 NSCLC): > 100 µM
TGI (K-562 leukemia): > 100 µM
TGI (MCF7 breast): > 100 µM
TGI (SK-MEL-28 melanoma): 56.9 µM
TGI (SF-295 CNS): > 100 µM
TGI (OVCAR-4 ovarian): > 100 µM
TGI (SK-OV-3 ovarian): > 100 µM
TGI (OVCAR-8 ovarian): > 100 µM
TGI (NCI-H226 lung): 84.6 µM
TGI (COLO 205 colon): > 100 µM
TGI (HCT-15 colon): > 100 µM
TGI (HCC-2998 colon): > 100 µM
TGI (NCI-H522 lung): 33.6 µM
TGI (EKVX NSCLC): > 100 µM
TGI (IGROV1 ovarian): 98.7 µM
TGI (KM12 colon): > 100 µM
TGI (OVCAR-3 ovarian): > 100 µM
TGI (SNB-19 CNS): > 100 µM
TGI (PC-3 prostate): > 100 µM
TGI (MDA-N): 37.6 µM
TGI (MDA-MB-231 breast): 49.1 µM
TGI (MALME-3M melanoma): 58.3 µM
TGI (UO-31 renal): > 100 µM
TGI (ACHN renal): > 100 µM
TGI (MDA-MB-435): 60.4 µM
TGI (NCI-H460 lung): > 100 µM
TGI (NCI/ADR-RES ovarian): > 100 µM
TGI (786-0 renal): 42.6 µM
TGI (UACC-257 melanoma): 38.8 µM
TGI (SW-620 colon): > 100 µM
TGI (TK-10 renal): 35 µM
TGI (OVCAR-5 ovarian): > 100 µM
TGI (SN12C renal): 45.9 µM
TGI (MOLT-4 leukemia): > 100 µM
TGI (DU-145 prostate): 51.5 µM
TGI (SK-MEL-2 melanoma): 48.8 µM
TGI (SNB-75 CNS): 40.7 µM
TGI (SF-539 CNS): > 100 µM
TGI (M14 melanoma): 65.5 µM

COc1ccc2cc(C(=O)NCCCNC(=O)c3ccc4c(OC)c(OC)ccc4c3)ccc2c1OC
TGI (U251 CNS): > 100 µM
TGI (SR leukemia): > 100 µM
TGI (RPMI-8226 leukemia): > 100 µM
TGI (HT29 colon): > 100 µM
TGI (UACC-62 melanoma): > 100 µM
TGI (RXF 393 renal): > 100 µM
TGI (SF-268 CNS): > 100 µM
TGI (HOP-62 NSCLC): > 100 µM
TGI (A549 NSCLC): > 100 µM
TGI (LOX IMVI melanoma): > 100 µM
TGI (CAKI-1 renal): > 100 µM
TGI (T-47D breast): > 100 µM
TGI (HCT-116 colon): > 100 µM
TGI (A498 renal): > 100 µM
TGI (NCI-H23 lung): > 100 µM
TGI (CCRF-CEM leukemia): > 100 µM
TGI (K-562 leukemia): > 100 µM
TGI (MCF7 breast): > 100 µM
TGI (SK-MEL-28 melanoma): > 100 µM
TGI (SF-295 CNS): > 100 µM
TGI (OVCAR-4 ovarian): > 100 µM
TGI (SK-OV-3 ovarian): > 100 µM
TGI (COLO 205 colon): > 100 µM
TGI (HCT-15 colon): > 100 µM
TGI (HCC-2998 colon): > 100 µM
TGI (NCI-H522 lung): > 100 µM
TGI (EKVX NSCLC): > 100 µM
TGI (KM12 colon): > 100 µM
TGI (OVCAR-3 ovarian): > 100 µM
TGI (SNB-19 CNS): > 100 µM
TGI (PC-3 prostate): > 100 µM
TGI (MDA-N): > 100 µM
TGI (MDA-MB-231 breast): > 100 µM
TGI (UO-31 renal): > 100 µM
TGI (ACHN renal): > 100 µM
TGI (MDA-MB-435): > 100 µM
TGI (NCI-H460 lung): > 100 µM
TGI (NCI/ADR-RES ovarian): > 100 µM
TGI (786-0 renal): > 100 µM
TGI (SK-MEL-5 melanoma): > 100 µM
TGI (UACC-257 melanoma): > 100 µM
TGI (SW-620 colon): > 100 µM
TGI (OVCAR-5 ovarian): > 100 µM
TGI (SN12C renal): > 100 µM
TGI (MOLT-4 leukemia): > 100 µM
TGI (DU-145 prostate): > 100 µM
TGI (SK-MEL-2 melanoma): > 100 µM
